The values that follow come from patent US12630563B2, “Macrocyclic RIP2-kinase inhibitors” (Oncodesign S.A., priority 2020, dated 2026).

T1 sequence (O43353 1-299): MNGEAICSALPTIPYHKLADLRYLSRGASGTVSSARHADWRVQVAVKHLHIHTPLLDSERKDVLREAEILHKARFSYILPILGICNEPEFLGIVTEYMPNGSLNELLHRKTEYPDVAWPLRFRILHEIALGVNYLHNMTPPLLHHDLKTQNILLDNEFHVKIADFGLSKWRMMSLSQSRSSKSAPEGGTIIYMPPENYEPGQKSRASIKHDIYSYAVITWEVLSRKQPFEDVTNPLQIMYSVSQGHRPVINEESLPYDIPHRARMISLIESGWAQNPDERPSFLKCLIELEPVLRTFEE
T2 sequence (Q12809 whole entry): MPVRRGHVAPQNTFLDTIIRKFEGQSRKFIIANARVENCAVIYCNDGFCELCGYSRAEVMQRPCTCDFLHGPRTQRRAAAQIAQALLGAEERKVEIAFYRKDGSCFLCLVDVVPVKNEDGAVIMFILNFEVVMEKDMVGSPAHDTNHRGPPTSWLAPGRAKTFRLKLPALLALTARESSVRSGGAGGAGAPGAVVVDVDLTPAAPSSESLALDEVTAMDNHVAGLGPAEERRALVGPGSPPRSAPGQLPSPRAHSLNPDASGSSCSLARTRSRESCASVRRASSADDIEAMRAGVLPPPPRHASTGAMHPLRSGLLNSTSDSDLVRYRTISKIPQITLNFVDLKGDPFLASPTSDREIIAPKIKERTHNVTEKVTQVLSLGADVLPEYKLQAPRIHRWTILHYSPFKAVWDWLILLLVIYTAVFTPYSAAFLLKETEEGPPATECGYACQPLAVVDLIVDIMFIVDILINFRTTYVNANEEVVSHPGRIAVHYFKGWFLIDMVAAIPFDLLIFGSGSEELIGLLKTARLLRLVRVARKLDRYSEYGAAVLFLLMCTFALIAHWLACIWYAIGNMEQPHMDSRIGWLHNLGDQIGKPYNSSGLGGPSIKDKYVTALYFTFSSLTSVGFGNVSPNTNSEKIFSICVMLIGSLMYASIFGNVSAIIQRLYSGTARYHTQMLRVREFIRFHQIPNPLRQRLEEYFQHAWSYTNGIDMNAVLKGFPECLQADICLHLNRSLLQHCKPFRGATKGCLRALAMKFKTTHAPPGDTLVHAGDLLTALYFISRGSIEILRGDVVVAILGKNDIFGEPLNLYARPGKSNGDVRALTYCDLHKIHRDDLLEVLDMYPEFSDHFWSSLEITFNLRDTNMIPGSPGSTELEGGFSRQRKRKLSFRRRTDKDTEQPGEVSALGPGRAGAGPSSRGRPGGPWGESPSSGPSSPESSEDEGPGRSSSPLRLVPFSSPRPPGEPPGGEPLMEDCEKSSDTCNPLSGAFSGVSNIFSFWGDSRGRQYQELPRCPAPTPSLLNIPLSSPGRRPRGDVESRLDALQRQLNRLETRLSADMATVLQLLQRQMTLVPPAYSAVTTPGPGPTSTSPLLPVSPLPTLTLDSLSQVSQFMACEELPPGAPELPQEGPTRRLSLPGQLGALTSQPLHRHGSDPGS

Tested on in one data set: not listed separately
Kind of data set: Human Clint, microsomal metabolic stability (Assay B). Format: in vitro ADME. Particulars: pooled liver microsomes 0.5 mg/mL, 0.5 μM compound, NADPH. The method, then:
Human Clint protocol: Pooled liver microsomes (Sekisui Xenotech) were diluted at 0.5 mg/mL in 50 mM phosphate buffer, pH 7.4 then pre-incubated with 0.5 μM […] for 7 min at 37° C. The reactions were initiated by adding prewarmed cofactor (0.44 mM NADPH). Aliquots of samples were taken at 0, 5, 10, 20 and 45 min and the reactions stopped by addition of cold acetonitrile containing an internal standard. Samples were centrifuged at 3000 g for 10 min at 4° C. and then supernatants were analyzed by LC/MS/MS for the amount of parent compound remaining.
(In general: Microsomes from liver hold many membrane-bound enzymes, among them those of drug oxidation.)
Consider `CO[C@@H]1C[C@H]2COc3ccn4ncc(c4n3)-c3cc(cc(C(=O)N(C)OC)c3)NCCN2C1=O` [Example 55, (12R,14S)—N,12-dimethoxy-N-methyl-11-oxo-16-oxa-7,10,20,21,24-pentaazapentacyclo[15.5.2.1^2,6.0^1°,^14.0^2°,^23]pentacosa-1(23),2,4,6(25),17(24),18,21-heptaene-4-carboxamide], for which the “Assay B: Human Clint (hCl)” value is “+++ (+++ indicates hCl equal or below 5 ug/min/mg prot)”.

A further data set addresses T1, recombinant hRIPK2 protein (kinase domain aa 1-299-His-tagged) (Homo sapiens, UniProt O43353).
T1 construct: kinase domain aa 1-299-His-tagged; purchased Life Technologies PR7829A
Kind of data set: RIPK2 AlphaLISA assay (displacement of bead-bound CZC-8004 from hRIPK2). Format: binding. The following applies: recombinant hRIPK2 kinase domain 10 nM, 2 h at 23° C. The procedure, abridged:
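His-tagged kinase domain (10 nM, as diluted) was mixed with compound (0.8% DMSO), acceptor beads bearing the probe CZC-8004 and Ni2+ donor beads. After 2 h at 23 °C, AlphaLISA signal was read. Loss of signal reflects displacement of the probe from RIPK2.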
A word on the IC50: it is the concentration at which inhibition is half-maximal. Consider `CO[C@@H]1C[C@H]2COc3ccn4ncc(c4n3)-c3cc(cc(C(=O)N(C)OC)c3)NCCN2C1=O` [Example 55, (12R,14S)—N,12-dimethoxy-N-methyl-11-oxo-16-oxa-7,10,20,21,24-pentaazapentacyclo[15.5.2.1^2,6.0^1°,^14.0^2°,^23]pentacosa-1(23),2,4,6(25),17(24),18,21-heptaene-4-carboxamide], for which the half-maximal inhibitory concentration (IC50) is below 10 nM.

For `O=C1[C@H](F)C[C@H]2COc3ccn4ncc(c4n3)-c3cc(F)cc(c3)NCCN12` [Example 26, (12R,14S)-4,12-difluoro-16-oxa-7,10,20,21,24-pentaazapentacyclo[15.5.2.1^2,6.0^10,^14.0^20,^23]pentacosa-1(23),2,4,6(25),17(24),18,21-heptaen-11-one], the 50% inhibitory concentration (IC50) was below 10 nM.

As for `COc1cc2cc(c1)-c1cnn3cc(OC)c(nc13)OC[C@@H]1C[C@@H](OC(C)C)C(=O)N1CCN2` [Example 147, (12R,14S)-4,18-dimethoxy-12-(propan-2-yloxy)-16-oxa-7,10,20,21,24-pentaazapentacyclo[15.5.2. 1^2,6.0^10,^14.0^20,^23]pentacosa-1(23),2,4,6(25),17(24),18, 21-heptaen-11-one], the 50% inhibitory concentration (IC50) is below 10 nM.

As for `COCCO[C@@H]1C[C@H]2COc3nc4c(cnn4cc3OCCCN(C)C)-c3cc(cc(OC)c3)NCCN2C1=O` [Example 127, (12R,14S)-18-[3-(dimethylamino)propoxy]-4-methoxy-12-(2-methoxyethoxy)-16-oxa-7,10,20,21,24-pentaazapentacyclo[15.5.2. 1^2,6.0^10,^14.0^20,^23]pentacosa-1(23),2,4,6(25),17(24),18,21-heptaen-11-one], the IC50 is below 10 nM.

Regarding `CO[C@@H]1C[C@H]2COc3nc4c(cnn4cc3C)-c3cc(cc(OCc4cnn(C)c4)c3)NCCN2C1=O` [Example 51, (12R,14S)-12-methoxy-18-methyl-4-[(1-methyl-1H-pyrazol-4-yl)methoxy]-16-oxa-7,10,20,21,24-pentaazapentacyclo[15.5.2.1^2,6.0^10,^14.0^20,^23]pentacosa-1(23),2,4,6(25),17(24),18,21-heptaen-11-one], the IC50 lay in the range of 100 to 11000 nM.

For the compound `CO[C@@H]1C[C@H]2COc3nc4c(cnn4cc3C)-c3cc(Cl)cc(c3)NCCN2C1=O` [Example 24, (12R,14S)-4-chloro-12-methoxy-18-methyl-16-oxa-7,10,20,21,24-pentaazapentacyclo[15.5.2.1^2,6.0^10,^14.0^20,^23]pentacosa-1(23),2(25),3,5,17(24),18,21-heptaen-11-one], the IC50 is below 10 nM.

As to `CO[C@@H]1C[C@H]2COc3nc4c(cnn4cc3C)-c3cc(cc(C(=O)N(C)OC)c3)NCCN2C1=O` [Example 63, (12R,14S)-N,12-dimethoxy-N,18-dimethyl-11-oxo-16-oxa-7,10,20,21,24-pentaazapentacyclo[15.5.2.1^2,6.0^10,^14.0^20,^23]pentacosa-1(23),2,4,6(25),17(24),18,21-heptaene-4-carboxamide], the IC50 is below 10 nM.

For `[2H]C([2H])([2H])Oc1cn2ncc3c2nc1OC[C@@H]1C[C@@H](OC)C(=O)N1CCNc1cc(F)cc-3c1` [Example 92, (12R,14S)-4-fluoro-18-(^2H3)methoxy-12-methoxy-16-oxa-7,10,20,21,24-pentaazapentacyclo[15.5.2.1^2,6.0^1°,^14.0^2°,^23]pentacosa-1(23),2(25),3,5,17(24),18,21-heptaen-11-one], the 50% inhibitory concentration (IC50) is below 10 nM.

In the case of `[2H]C([2H])([2H])O[C@@H]1C[C@H]2COc3ccn4ncc(c4n3)-c3cc(F)cc(c3)NCCN2C1=O` [Example 36, (12R,14S)-4-fluoro-12-(^2H3)methoxy-16-oxa-7,10,20,21,24-pentaazapentacyclo[15.5.2.1^2,6.0^10,^14.0^20,^23]pentacosa-1(23),2(25),3,5,17(24),18,21-heptaen-11-one], the half-maximal inhibitory concentration (IC50) is below 10 nM.

Regarding `COCCO[C@@H]1C[C@H]2COc3nc4c(cnn4cc3OC)-c3cc(C#N)cc(c3)NCCN2C1=O` [Example 145, (12R,14S)-18-methoxy-12-(2-methoxyethoxy)-11-oxo-16-oxa-7,10,20,21,24-pentaazapentacyclo[15.5.2.1^2,6.0^10,^14.0^20,^23]pentacosa-1(23),2,4,6(25),17(24),18,21-heptaene-4-carbonitrile], the 50% inhibitory concentration (IC50) was below 10 nM.

As to `[2H]C([2H])([2H])Oc1cc2cc(c1)-c1cnn3ccc(nc13)OC[C@@H]1C[C@@H](OCC)C(=O)N1CCN2` [Example 94, (12R,14S)-12-ethoxy-4-(^2H3)methoxy-16-oxa-7,10,20,21,24-pentaazapentacyclo[15.5.2.1^2,6.0^10,^14.0^20,^23]pentacosa-1(23),2(25),3,5,17(24),18,21-heptaen-11-one], the 50% inhibitory concentration (IC50) is below 10 nM.

On to `CO[C@@H]1C[C@H]2COc3ccn4ncc(c4n3)-c3cc(cc(OCc4cccnc4)c3)NCCN2C1=O` [Example 44, (12R,14S)-12-methoxy-4-(pyridin-3-ylmethoxy)-16-oxa-7,10,20,21,24-pentaazapentacyclo[15.5.2.1^2,6.0^1°,^14.0^2°,^23]pentacosa-1 (23),2(25),3,5,17(24),18,21-heptaen-11-one], for which the 50% inhibitory concentration (IC50) is 10 to 100 nM.

In the case of `COCCO[C@@H]1C[C@H]2COc3nc4c(cnn4cc3OC3COC3)-c3cc(cc(OC)c3)NCCN2C1=O` [Example 138, (12R,14S)-4-methoxy-12-(2-methoxyethoxy)-18-(oxetan-3-yloxy)-16-oxa-7,10,20,21,24-pentaazapentacyclo[15.5.2. 1^2,6.0^10,^14.0^20,^23]pentacosa-1(23),2,4,6(25),17(24),18,21-heptaen-11-one], the IC50 is below 10 nM.

Turning to `CO[C@@H]1C[C@H]2COc3nc4c(cnn4cc3-c3cnn(C)c3C)-c3cc(F)cc(c3)NCCN2C1=O` [Example 68], the IC50 is below 10 nM.

As to `[2H]C([2H])([2H])Oc1cc2cc(c1)-c1cnn3ccc(nc13)OC[C@@H]1C[C@@H](OC)C(=O)N1CCN2` [Example 52, (12R,14S)-4-(^2H3)methoxy-12-methoxy-16-oxa-7,10,20,21,24-pentaazapentacyclo[15.5.2.1^2,6.0^10,^14.0^20,^23]pentacosa-1(23),2,4,6(25),17(24),18,21-heptaen-11-one], the IC50 was below 10 nM.

As to `CO[C@@H]1C[C@H]2COc3ccn4ncc(c4n3)-c3cc(cc(-n4nccc4C)c3)NCCN2C1=O` [Example 43, (12R,14S)-12-methoxy-4-(5-methyl-1H-pyrazol-1-yl)-16-oxa-7,10,20,21,24-pentaazapentacyclo[15.5.2.1^2,6.0^10,^14.0^20,^23]pentacosa-1(23),2(25),3,5,17(24),18,21-heptaen-11-one], the IC50 was below 10 nM.

Turning to `CC(C)O[C@@H]1C[C@H]2COc3ccn4ncc(c4n3)-c3cc(F)cc(c3)NCCN2C1=O` [Example 9, (12R,14S)-4-fluoro-12-(propan-2-yloxy)-16-oxa-7,10,20,21,24-pentaazapentacyclo[15.5.2.1^2,6.0^10,^14.0^20,^23]pentacosa-1(23),2,4,6(25),17(24),18,21-heptaen-11-one], the 50% inhibitory concentration (IC50) is below 10 nM.

`COCCO[C@@H]1C[C@H]2COc3ccn4ncc(c4n3)-c3cc(C#N)cc(c3)NCCN2C1=O` (racemic) [Example 114, (12R,14S)-12-(2-methoxyethoxy)-11-oxo-16-oxa-7,10,20,21,24-pentaazapentacyclo[15.5.2.1^2,6.0^10,^14.0^20,^23]pentacosa-1(23),2,4,6(25),17(24),18,21-heptaene-4-carbonitrile]: the concentration for half-maximal inhibition (IC50) was below 10 nM.

Consider `COCCO[C@@H]1C[C@H]2COc3ccn4ncc(c4n3)-c3cc(cc(C(C)=O)c3)NCCN2C1=O` [Example 98, (12R,14S)-4-acetyl-12-(2-methoxyethoxy)-16-oxa-7,10,20,21,24-pentaazapentacyclo[15.5.2.1^2,6.0^10,^14.0^20,^23]pentacosa-1(23),2,4,6(25),17(24),18,21-heptaen-11-one], for which the IC50 was below 10 nM.

As for `CCO[C@@H]1C[C@H]2COc3ccn4ncc(c4n3)-c3cc(cc(C(N)=O)c3)NCCN2C1=O` [Example 60, (12R,14S)-12-ethoxy-11-oxo-16-oxa-7,10,20,21,24-pentaazapentacyclo[15.5.2.1^2,6.0^10,^14.0^20,^23]pentacosa-1(23),2(25),3,5,17(24),18,21-heptaene-4-carboxamide], the IC50 was below 10 nM.

For `O=C1[C@H](O)C[C@H]2COc3ccn4ncc(c4n3)-c3cc(cc(-n4cccn4)c3)NCCN12` [Example 82, (12R,14S)-12-hydroxy-4-(1H-pyrazol-1-yl)-16-oxa-7,10,20,21,24-pentaazapentacyclo[15.5.2. 1^2,6.0^10,^14.0^20,^23]pentacosa-1(23),2(25),3,5,17(24),18,21-heptaen-11-one], the IC50 is below 10 nM.

The next data set addresses T2, hERG potassium channel (Homo sapiens, UniProt Q12809).
T2 construct: host or cells: HEK (hERG-HEK stably transfected cell line)
Kind of data set: hERG q-patch assay (Assay C, Sophion Qube automated electrophysiology). The data set is classed as cell-based. Particulars: read-out: Assay C: hERG q-patch inhibition IC50. As for the experimental part:
hERG q-patch assay protocol: The potential for test compound to inhibit the hERG potassium channel was determined using the Charles River ChanTest® hERG-HEK stably transfected cell line on the Sophion Qube automated electrophysiology platform. The assay was performed at room temperature and recordings of the hERG tail current from a population of cells were made using multi-hole QChips.
For orientation: hERG is a cardiac potassium channel; its block is linked to QT prolongation.
On to `CO[C@@H]1C[C@H]2COc3ccn4ncc(c4n3)-c3cc(cc(C(=O)N(C)OC)c3)NCCN2C1=O` [Example 55, (12R,14S)—N,12-dimethoxy-N-methyl-11-oxo-16-oxa-7,10,20,21,24-pentaazapentacyclo[15.5.2.1^2,6.0^1°,^14.0^2°,^23]pentacosa-1(23),2,4,6(25),17(24),18,21-heptaene-4-carboxamide], for which the IC50 is above 10000 nM.
